# Laboratory results published in US9023851B2 (Merck Patent GmbH, priority 2010, dated 2015).
# How the values were obtained:
# GCN2 = GCN2 (Homo sapiens, UniProt Q9P2K8); test: GCN2 kinase TR-FRET (Lanthascreen) assay; format: biochemical
# Description: GCN2: Assay Principle & Conditions
# This assay can quantificate the activity of the serin kinase GCN2 (general control non-derepressible-2).
# This kinase is involved in the stress metabolism of cells. It is activated upon starvation (amino acid depletion). Its natural substrate is eIF2a (eukaryotic initiation factor 2 alpha subunit), a translation factor, which gets activated (phosphorylated) by GCN2 in case of an amino acid bottleneck in the cells. This in turn leads to a halt of the protein synthesis. Inhibition of GCN2 results in stopping this mechanism: The cell can not stop protein production upon “starvation” stress.
# The assay is run in two steps: the enzymatic reaction and the detection step. In the first step GCN2 is incubated with 10 μM ATP and 80 nM of the GFP-labelled substrate eIF2alpha at room temperature.
# The enzymatic reaction is stopped by addition of EDTA. The amount of phosphorylated eIF2alpha is determined by TR-FRET (Lanthascreen): A complex is formed consisting of antibody and GFP labelled phospho-eIF2a, which allows a FRET upon exitation at 340 nm.
# The GCN2-activity is directly proportional to the ratio of fluorescence units at the emission wavelengthh 520 nm (phosphopeptide-sensitive wavelength=emission of GFP) to the units at 495 nm (reference wavelength=emission of Terbium-chelate).
# Assay Procedure • 4 uL enzyme solution (in assay buffer) • 1.5 uL compound (in cmpd dilution buffer/6.3% DMSO) • Incubation 20 min at RT • 4 uL substrate/ATP mix (in assay buffer) • Incubation 90 min at RT • 10 uL stop/detection mix (in antibody dilution buffer) • Incubation 60 min at RT • Readout Lanthascreen 340/495/5204
# Syk = target: T1, Syk (Homo sapiens, UniProt P43405); test: Syk enzyme assay (flash plate / Caliper mobility shift); format: biochemical
# T1 construct: purchased BPS Bioscience, CA, USA
# How it was run: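 Flashplate format used 2.5 nM SYK, 400 nM biotinylated peptide and 10 µM ATP with 33P tracer, pH 7.5, 1 h at 30 °C, read by radioactivity. Caliper format ran 90 min at 25 °C in HEPES pH 7.5, reading percent peptide conversion by mobility shift. IC50s came from dose-response curves.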
# BTK = target: T2, BTK (Homo sapiens, UniProt Q06187); test: BTK enzymatic assay (Caliper LifeSciences technology); format: biochemical
# T2 construct: purchased Carna Bioscience, Kobe, Japan
# Description: (§1) Enzymatic Assays Using the Caliper LifeSciences Technology
# (§2) The assays described here are performed on the Caliper Life Sciences LC3000 system This technology provides data on enzyme activity via measurement of the relative amounts of phosphorylated or unphosphorylated fluorescently labelled substrate peptide at the end of an enzymatic reaction. These different states of peptide are resolved by applying a potential difference across the sample. The presence of the charged phosphate group on the product (as opposed to the substrate) causes a different peptide mobility between the two peptides. This is visualized by excitation of the fluorescent label on the substrate and product peptides and represented as peaks within the analysis software.
# (§3) In order to measure inhibitor activity of kinase inhibitors on this technology, a TTP Mosquito liquid handling instrument is used to place 0.25 ul of the appropriate concentration of inhibitor in 100% DMSO (for a dose response curve calculation) into each well of a 384-well plate. To this reaction components are added to a final volume of 25 ul. The table below indicates the sequences and concentrations for the assays described in this report. Standard components are 1 mM DTT (Sigma, D0632), 1 mM MgCl2 (Sigma, M1028), 100 mM HEPES pH 7.5 (Calbiochem, 391338), 0.015% Brij-35 (Sigma, B4184).
# (§4) The reaction is incubated for 90 min at 25 C, and then stopped by the addition of 70 ul of Stop buffer (100 mM HEPES pH 7.5, 0.015% Brij-35, 10 mM EDTA (Sigma, E7889)).
# (§5) The plate is read on a Caliper LC 3000 in an Off-Chip mobility shift assay format, on a 12-sipper chip. Unphosphorylated substrate and phosphorylated product peptide resolve as separate peaks allowing direct measurement of percentage of conversion of substrate to product. The percent conversion can be plotted against concentration of inhibitor to produce a sigmoidal dose response curve, from which an IC50 can be calculated using GeneData Condoseo or a similar product. Cellular activity assays
# KDR = target: T3, KDR (Homo sapiens, UniProt P35968); test: KDR enzymatic assay (Caliper LifeSciences technology); format: biochemical
# T3 construct: purchased BPS Bioscience, CA, USA
# How it was run: (§6)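 Off-chip mobility-shift assay quantifying conversion of a fluorescent peptide substrate to phosphorylated product. Reactions in 100 mM HEPES pH 7.5, 1 mM DTT, 1 mM MgCl2, 0.015% Brij-35, 90 min at 25 C, stopped with EDTA. IC50 from sigmoidal fit of percent conversion versus inhibitor concentration.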
# Src = target: T4, Src (Homo sapiens, UniProt P12931); test: cSrc enzymatic assay (Caliper LifeSciences technology); format: biochemical
# T4 construct: purchased Carna Bioscience, Kobe, Japan
# Description: as §1, §2, §3, §4, §5
# Ramos cells = test: BCR crosslinking-induced BLNK phosphorylation (BLNK cell assay); format: cell-based; conditions: Homo sapiens
# Description: 1. BCR Crosslinking-Induced BLNK Phosphorylation
# Ramos cells incubated overnight in IMDM medium containing 5% FCS were resuspended in IMDM medium without serum (3.3×10^6 cells/ml). 90 μl of cell suspension (300′000 cells) were incubated with 10 μl of SYK inhibitors (in 3% DMSO) for 20 minutes at 37° C., in 96 well plates. After preincubation with inhibitors, cells were activated with 10 μg/ml of goat antihuman anti-IgM for 10 minutes at 37° C. After stimulation, cells were fixed by addition of 80 μl of 4% paraformaldehyde followed by a 10 minutes incubation at RT and […] in 0.1% Triton X-100 in PBS. BLNK phosphorylation was detected by flow cytometry after staining of the cells with anti-BLNK-pY84-PE antibodies from BD pharmingen, for 45 minutes at RT. […]
# ZAP-70 = target: T5, ZAP-70 (Homo sapiens, UniProt P43403); test: Zap70 enzymatic assay (Caliper LifeSciences technology); format: biochemical
# T5 construct: purchased BPS Bioscience, CA, USA
# T5 sequence (P43403 1-619): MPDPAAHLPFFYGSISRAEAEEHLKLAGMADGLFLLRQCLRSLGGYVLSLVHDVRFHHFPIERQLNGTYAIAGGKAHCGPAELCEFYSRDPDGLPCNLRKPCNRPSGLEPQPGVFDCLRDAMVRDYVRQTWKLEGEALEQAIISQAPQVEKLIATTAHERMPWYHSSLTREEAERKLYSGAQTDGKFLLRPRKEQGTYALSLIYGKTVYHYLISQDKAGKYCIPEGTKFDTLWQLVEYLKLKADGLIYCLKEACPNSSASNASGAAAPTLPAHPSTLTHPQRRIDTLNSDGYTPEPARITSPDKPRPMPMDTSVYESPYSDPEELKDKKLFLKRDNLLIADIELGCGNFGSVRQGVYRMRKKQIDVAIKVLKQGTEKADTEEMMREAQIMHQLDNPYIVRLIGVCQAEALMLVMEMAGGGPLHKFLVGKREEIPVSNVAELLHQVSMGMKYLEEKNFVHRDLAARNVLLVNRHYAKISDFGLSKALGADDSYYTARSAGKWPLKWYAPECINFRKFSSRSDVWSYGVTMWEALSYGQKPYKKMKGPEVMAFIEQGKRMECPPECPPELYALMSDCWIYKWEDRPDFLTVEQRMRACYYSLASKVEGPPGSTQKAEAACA
# How it was run: as §6
# [1] = murine model of RA, cited from earlier work
# [2] = RA Phase II studies in humans; cited from earlier work
# 3LL lung carcinoma = conditions: s.c. 3LL lung carcinoma in mice; cited from earlier work
# GCN2, sequence (Q9P2K8 whole entry, species assumed): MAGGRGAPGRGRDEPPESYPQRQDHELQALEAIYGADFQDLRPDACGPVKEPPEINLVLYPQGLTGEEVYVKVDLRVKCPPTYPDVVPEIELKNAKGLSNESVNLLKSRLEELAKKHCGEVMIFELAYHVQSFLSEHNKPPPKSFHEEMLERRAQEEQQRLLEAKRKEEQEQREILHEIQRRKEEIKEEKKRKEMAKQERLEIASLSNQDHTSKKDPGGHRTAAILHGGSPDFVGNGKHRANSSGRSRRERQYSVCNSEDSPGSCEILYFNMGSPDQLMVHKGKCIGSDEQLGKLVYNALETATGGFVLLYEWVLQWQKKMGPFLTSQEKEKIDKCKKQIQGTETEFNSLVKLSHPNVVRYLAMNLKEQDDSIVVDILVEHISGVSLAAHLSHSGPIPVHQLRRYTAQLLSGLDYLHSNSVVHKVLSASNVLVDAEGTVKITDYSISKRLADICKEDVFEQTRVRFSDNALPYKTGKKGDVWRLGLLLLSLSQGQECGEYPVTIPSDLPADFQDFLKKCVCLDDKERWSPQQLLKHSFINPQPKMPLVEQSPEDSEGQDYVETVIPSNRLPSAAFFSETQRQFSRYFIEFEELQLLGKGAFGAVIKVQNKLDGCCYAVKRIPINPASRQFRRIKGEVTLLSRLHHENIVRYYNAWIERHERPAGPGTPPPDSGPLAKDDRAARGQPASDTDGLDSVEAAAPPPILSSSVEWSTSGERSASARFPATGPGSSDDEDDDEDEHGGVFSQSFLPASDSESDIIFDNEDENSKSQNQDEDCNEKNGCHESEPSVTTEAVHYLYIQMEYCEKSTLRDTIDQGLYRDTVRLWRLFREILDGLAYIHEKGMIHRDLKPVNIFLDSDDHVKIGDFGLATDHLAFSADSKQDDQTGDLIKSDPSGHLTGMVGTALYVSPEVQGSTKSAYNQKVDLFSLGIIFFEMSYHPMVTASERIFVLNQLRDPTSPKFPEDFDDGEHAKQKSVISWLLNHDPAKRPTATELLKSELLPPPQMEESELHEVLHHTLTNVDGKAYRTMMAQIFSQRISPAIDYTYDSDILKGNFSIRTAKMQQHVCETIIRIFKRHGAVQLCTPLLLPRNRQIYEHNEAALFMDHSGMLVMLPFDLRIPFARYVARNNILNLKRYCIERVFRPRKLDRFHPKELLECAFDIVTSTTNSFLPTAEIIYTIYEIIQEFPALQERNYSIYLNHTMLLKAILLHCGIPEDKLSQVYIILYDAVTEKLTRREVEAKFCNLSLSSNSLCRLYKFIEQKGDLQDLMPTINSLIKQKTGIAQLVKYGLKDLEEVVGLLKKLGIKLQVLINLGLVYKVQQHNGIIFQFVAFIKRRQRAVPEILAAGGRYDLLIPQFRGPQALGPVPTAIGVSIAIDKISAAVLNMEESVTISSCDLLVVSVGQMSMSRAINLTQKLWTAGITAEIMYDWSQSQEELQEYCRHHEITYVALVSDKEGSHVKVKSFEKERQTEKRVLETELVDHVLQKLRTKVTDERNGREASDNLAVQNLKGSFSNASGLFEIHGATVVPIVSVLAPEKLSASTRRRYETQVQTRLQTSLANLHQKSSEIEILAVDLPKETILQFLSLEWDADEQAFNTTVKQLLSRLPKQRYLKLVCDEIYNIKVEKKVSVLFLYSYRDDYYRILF
# T4 sequence (P12931 whole entry): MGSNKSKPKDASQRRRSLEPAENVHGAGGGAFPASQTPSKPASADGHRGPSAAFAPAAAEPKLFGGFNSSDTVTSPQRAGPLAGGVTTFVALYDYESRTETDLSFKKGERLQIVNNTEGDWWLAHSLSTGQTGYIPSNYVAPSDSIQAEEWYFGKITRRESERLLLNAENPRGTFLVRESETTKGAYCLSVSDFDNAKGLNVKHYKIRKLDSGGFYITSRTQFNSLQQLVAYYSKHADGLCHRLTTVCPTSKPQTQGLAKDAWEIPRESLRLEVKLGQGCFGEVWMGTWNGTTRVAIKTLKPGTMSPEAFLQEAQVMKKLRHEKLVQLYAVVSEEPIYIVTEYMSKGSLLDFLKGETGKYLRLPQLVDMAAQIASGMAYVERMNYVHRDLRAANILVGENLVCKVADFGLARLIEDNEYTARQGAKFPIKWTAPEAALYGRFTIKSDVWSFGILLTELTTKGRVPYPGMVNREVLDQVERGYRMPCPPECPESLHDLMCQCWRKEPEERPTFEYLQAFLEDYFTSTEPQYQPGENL
# T3 sequence (P35968 20-1356): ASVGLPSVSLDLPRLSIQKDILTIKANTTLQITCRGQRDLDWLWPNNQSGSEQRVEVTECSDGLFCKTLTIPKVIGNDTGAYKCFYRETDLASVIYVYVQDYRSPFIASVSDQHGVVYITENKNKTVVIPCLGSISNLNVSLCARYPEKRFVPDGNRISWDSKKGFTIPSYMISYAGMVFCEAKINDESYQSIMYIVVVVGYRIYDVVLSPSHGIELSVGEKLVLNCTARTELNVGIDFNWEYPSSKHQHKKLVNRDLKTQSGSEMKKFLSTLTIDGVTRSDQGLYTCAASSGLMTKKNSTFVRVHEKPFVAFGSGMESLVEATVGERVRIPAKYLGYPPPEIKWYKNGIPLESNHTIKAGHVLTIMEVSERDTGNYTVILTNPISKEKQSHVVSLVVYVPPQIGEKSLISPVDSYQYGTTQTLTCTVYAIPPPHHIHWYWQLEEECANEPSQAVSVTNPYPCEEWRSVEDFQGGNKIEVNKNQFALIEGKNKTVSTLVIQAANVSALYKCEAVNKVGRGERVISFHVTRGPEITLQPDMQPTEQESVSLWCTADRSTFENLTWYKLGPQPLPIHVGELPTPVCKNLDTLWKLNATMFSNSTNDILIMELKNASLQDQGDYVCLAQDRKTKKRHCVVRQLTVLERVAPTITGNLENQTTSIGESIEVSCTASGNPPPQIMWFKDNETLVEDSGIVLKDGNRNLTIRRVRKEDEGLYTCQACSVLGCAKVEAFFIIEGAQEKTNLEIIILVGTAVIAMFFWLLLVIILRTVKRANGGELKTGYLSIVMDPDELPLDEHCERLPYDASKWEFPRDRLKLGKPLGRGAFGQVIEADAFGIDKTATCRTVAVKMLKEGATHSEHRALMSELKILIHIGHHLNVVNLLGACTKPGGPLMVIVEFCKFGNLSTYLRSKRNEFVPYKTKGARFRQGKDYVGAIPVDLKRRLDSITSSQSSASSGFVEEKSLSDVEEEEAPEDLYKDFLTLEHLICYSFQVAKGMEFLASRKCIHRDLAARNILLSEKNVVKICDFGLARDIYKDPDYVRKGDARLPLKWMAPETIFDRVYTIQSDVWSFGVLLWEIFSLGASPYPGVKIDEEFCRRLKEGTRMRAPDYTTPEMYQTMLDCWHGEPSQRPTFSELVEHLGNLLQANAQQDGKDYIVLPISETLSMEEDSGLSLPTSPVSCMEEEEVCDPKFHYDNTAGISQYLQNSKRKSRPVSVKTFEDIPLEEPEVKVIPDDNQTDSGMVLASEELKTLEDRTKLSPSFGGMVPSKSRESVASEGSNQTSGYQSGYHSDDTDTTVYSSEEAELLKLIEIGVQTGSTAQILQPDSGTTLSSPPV
# T2 sequence (Q06187 whole entry): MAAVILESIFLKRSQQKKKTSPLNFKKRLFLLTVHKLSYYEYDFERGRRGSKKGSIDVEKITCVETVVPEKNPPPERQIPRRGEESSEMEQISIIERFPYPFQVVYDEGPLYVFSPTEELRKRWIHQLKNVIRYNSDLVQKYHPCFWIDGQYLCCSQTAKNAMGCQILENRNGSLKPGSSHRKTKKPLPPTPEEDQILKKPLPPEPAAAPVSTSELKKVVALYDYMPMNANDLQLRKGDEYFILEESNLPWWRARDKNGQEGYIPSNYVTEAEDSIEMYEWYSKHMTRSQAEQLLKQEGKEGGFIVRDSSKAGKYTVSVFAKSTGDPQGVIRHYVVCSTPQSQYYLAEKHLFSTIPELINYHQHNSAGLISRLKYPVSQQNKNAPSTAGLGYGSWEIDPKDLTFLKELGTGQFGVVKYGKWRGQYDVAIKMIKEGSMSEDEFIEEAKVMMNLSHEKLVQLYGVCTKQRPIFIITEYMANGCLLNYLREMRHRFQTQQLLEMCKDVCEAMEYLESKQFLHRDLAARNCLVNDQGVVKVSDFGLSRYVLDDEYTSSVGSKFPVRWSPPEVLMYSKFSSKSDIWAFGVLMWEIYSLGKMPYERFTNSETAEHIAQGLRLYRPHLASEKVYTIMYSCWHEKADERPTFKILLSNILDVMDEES
IC50 (GCN2) [µM],IC50 (Syk) [µM],IC50 (KDR) [µM],IC50 (Src) [µM],IC50 (ZAP-70) [µM],SMILES,also measured
< 10,–,–,–,–,COc1cc(OC)cc(-c2nccn3nc(Nc4cc(C)cc(C)c4)nc23)c1 [Example E5],–
–,3 to 50,3 to 50,3 to 50,–,"O=C1Nc2cc(Nc3nc4c(-c5nccs5)nccn4n3)ccc2OC1(F)F [Example C6, 2,2-Difluoro-6-(8-thiazol-2-yl-[1,2,4]triazolo[1,5-a]pyrazin-2-ylamino)-4H-benzo[1,4]oxazin-3-one]",IC50 (BTK): 3 to 50 µM
< 10,–,–,–,–,c1ccc(Cn2ncc3ccc(Nc4nc5c(-c6nccs6)nccn5n4)cc32)cc1 [Example E9],–
–,< 0.3,< 0.3,–,–,"COc1cc(Nc2nc3c(-c4ccccc4)nccn3n2)cc(OC)c1 [Example C8, (3,5-Dimethoxy-phenyl)-(8-phenyl-[1,2,4]triazolo[1,5-a]pyrazin-2-yl)-amine]",IC50 (BTK): 3 to 50 µM
–,< 0.3,< 0.3,< 0.3,3 to 50,"c1cc(-c2nccn3nc(Nc4ccc(N5CCOCC5)cc4)nc23)c2cc[nH]c2c1 [Example D10, [8-(1H-Indol-4-yl)-[1,2,4]triazolo[1,5-a]pyrazin-2-yl]-(4-morpholin-4-yl-phenyl)-amine]",IC50 (Ramos cells): 3 to 50 µM
< 10,–,–,–,–,Cc1cc(C)cc(Nc2nc3c(-c4ccc(N5CCOCC5)cc4)nccn3n2)c1 [Example E2],–
–,0.3 to 3,–,–,3 to 50,"c1ccc(Cn2ncc3ccc(Nc4nc5c(-c6nccs6)nccn5n4)cc32)cc1 [Example C24, (1-Benzyl-1H-indazol-6-yl)-(8-thiazol-2-yl-[1,2,4]triazolo[1,5-a]pyrazin-2-yl)-amine]",IC50 (BTK): 3 to 50 µM
< 10,–,–,–,–,Cc1cccc(Nc2nc3c(-c4ccc(N5CCOCC5)cc4)nccn3n2)c1 [Example E4],–
< 10,–,–,–,–,Cn1ccnc1Sc1ccc(Nc2nc3c(-c4ccccc4)nccn3n2)cc1Cl [Example E7],–
< 10,–,–,–,–,COc1ccc(Nc2nc3c(-c4cccnc4)nccn3n2)cc1OC [Example E10],–
< 10,–,–,–,–,c1ccc(Cn2ncc3ccc(Nc4nc5c(-c6ccccc6)nccn5n4)cc32)cc1 [Example E8],–
–,< 0.3,< 0.3,0.3 to 3,0.3 to 3,"COc1cc(Nc2nc3c(-c4cccc(O)c4)nccn3n2)cc(OC)c1 [Example C268, 3-[2-(3,5-Dimethoxy-phenylamino)-[1,2,4]triazolo[1,5-a]pyrazin-8-yl]-phenol]",IC50 (Ramos cells): 3 to 50 µM
–,–,–,–,–,COc1cc(Nc2ncc(F)c(Nc3ccc4c(n3)NC(=O)C(C)(C)O4)n2)cc(OC)c1OC [Example R406],"clinical scores ([1]; orally available Syk inhibitor): significant improvement of clinical scores; serum cytokine concentrations and bone erosion [1]: significantly reduced serum cytokine concentrations, as well as bone erosion; efficacy (ACR scores) [2]: efficacy (ACR scores improvement); tolerability [2]: good tolerability"
–,< 0.3,< 0.3,0.3 to 3,3 to 50,c1ccc2ncc(-c3nccn4nc(Nc5ccc(N6CCOCC6)cc5)nc34)cc2c1 [Example C261],IC50 (Ramos cells): 3 to 50 µM
–,< 0.3,0.3 to 3,0.3 to 3,3 to 50,"COc1cc(Nc2nc3c(-c4cccnc4)nccn3n2)cc(OC)c1 [Example C19, (3,5-Dimethoxy-phenyl)-(8-pyridin-3-yl-[1,2,4]triazolo[1,5-a]pyrazin-2-yl)-amine]",IC50 (Ramos cells): 3 to 50 µM; IC50 (BTK): 3 to 50 µM
–,< 0.3,0.3 to 3,0.3 to 3,3 to 50,"CN1CCN(c2ccc(Nc3nc4c(-c5cnn(C)c5)nccn4n3)cc2)CC1 [Example D18, [4-(4-Methyl-piperazin-1-yl)-phenyl]-[8-(1-methyl-1H-pyrazol-4-yl)-[1,2,4]triazolo[1,5-a]pyrazin-2-yl]-amine]",IC50 (Ramos cells): 3 to 50 µM
–,< 0.3,0.3 to 3,< 0.3,3 to 50,"CN1CCN(c2ccc(Nc3nc4c(-c5cnc6ccccc6c5)nccn4n3)cc2)CC1 [Example D23, [4-(4-Methyl-piperazin-1-yl)-phenyl]-(8-quinolin-3-yl-[1,2,4]triazolo[1,5-a]pyrazin-2-yl)-amine]",IC50 (Ramos cells): 3 to 50 µM
< 10,–,–,–,–,FC(F)(F)c1cccc(Nc2nc3c(-c4ccc(N5CCOCC5)cc4)nccn3n2)c1 [Example E3],–
< 10,–,–,–,–,Cc1cc(C)cc(Nc2nc3c(-c4cccnc4)nccn3n2)c1 [Example E6],–
–,3 to 50,3 to 50,3 to 50,3 to 50,"c1ccc(Nc2nc3c(-c4nccs4)nccn3n2)cc1 [Example C14, Phenyl-(8-thiazol-2-yl-[1,2,4]triazolo[1,5-a]pyrazin-2-yl)-amine]",IC50 (BTK): 3 to 50 µM
–,–,–,–,–,N=C(NO)NCC[C@H](N)C(=O)O [N-hydroxy-nor-L-Arg],tumor growth (3LL lung carcinoma): blocks growth of s.c. 3LL lung carcinoma in mice
